Measured values published in patent US11673866B2, “Estrogen receptor beta ligands for the prevention and treatment of multiple sclerosis (MS) and other demyelinating, inflammatory and neurodegenerative diseases” (The Board of Trustees of the University of Illinois, priority 2018, dated 2023).
“Also recorded” adds a separate entry of the source.

What was measured:
ERα = molecular target: T1, ERα (Homo sapiens, UniProt P03372); assay: Relative binding affinity (RBA) to estrogen receptor alpha, radiometric measurement; settings: relative value to 100% for E2 by radiometric measurement
T1 sequence (P03372 1-595): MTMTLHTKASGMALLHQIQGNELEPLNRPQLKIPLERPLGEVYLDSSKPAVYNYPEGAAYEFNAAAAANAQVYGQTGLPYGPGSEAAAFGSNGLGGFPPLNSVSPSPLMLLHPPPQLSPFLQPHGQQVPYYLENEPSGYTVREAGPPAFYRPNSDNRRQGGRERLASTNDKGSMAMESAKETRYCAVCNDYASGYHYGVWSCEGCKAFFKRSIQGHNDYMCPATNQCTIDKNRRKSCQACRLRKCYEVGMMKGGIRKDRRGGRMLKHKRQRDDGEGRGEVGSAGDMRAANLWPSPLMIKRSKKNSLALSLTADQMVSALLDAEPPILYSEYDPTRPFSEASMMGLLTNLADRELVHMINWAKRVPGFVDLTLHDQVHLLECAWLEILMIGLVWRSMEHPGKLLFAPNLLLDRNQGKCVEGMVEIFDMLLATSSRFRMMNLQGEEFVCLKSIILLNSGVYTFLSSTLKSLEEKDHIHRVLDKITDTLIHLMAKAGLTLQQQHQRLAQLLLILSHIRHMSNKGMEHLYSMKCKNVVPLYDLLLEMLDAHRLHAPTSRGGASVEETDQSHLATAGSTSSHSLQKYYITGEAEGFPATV

corpus callosum axons = assay: Electron microscopy g-ratio of corpus callosum axons of EAE mice; format: in vivo, mouse; set-up: key to Myelination: g-ratio: ‘+’ indicate marker was significantly (p ≤ 0.05) increased in treatment group relative to vehicle; ‘−’ indicates marker was significantly (p ≤ 0.05) decreased in treatment group relative to vehicle; ○: ‘o’ indicate marker did not change relative to vehicle; settings: vs vehicle; for Myelination: g-ratio: Post (therapeutic, postEAE) treatment of EAE mice
Method: Transmission Electron Microscopy: Mice were perfused with PBS as above followed by paraformaldehyde/glutaraldehyde to preserve ultrastructure and Epon embedded as previously described (Crawford et al., 2010). Serial ultrathin sections of Epon-embedded CC were stained with uranyl acetate-lead citrate were used for electron microscopy analysis (19). G-ratio was measured using Fiji v1.0 Software (NIH).
EM analysis (FIGS. 8A and 8B): Within a given field imaged, g-ratios were calculated by comparing mean ratio of inner axonal diameter to total outer diameter for all myelinated and non-myelinated fibers. […] Treatment with IndCl or either analogue decreased both non-myelinated axons numbers and g-ratio relative to vehicle.

[1] = tested on: primary oligodendrocyte and oligodendrocyte precursor cells (OL/OPCs); assay: Primary OPC culture differentiation (MBP immunostaining, DAPI); format: cell-based, mouse; settings: for number of MBP+ OLs (differentiated OLs) / branched OLs / complex branching cells: 10 nM, vs vehicle-treated cells; for number of MBP+ OLs (differentiated OLs): 3 days in differentiating media
Method: Primary OPC Cultures: Primary OPCs, isolated from postnatal day P1 C57BL/6 male and female mouse cortices as described previously, were treated with 10 nM ligands in differentiating medium for 3 days (Tiwari-Woodruff et al., 2001; Tiwari-Woodruff et al., 2006). Primary OPC were cultured into 8-well chamber slides (three wells per condition, 2.5×10^5 cells/well) for three days to attach and […] in differentiating media (consisting of DMEM-F12 with triiodothyronine- and thyroxine-containing Sato as well as penicillin, streptomycin, insulin, N-acetyl-L-cysteine, forskolin, ciliary neurotrophic factor, neurotrophin-3, and platelet-derived growth factor receptor α (Tiwari-Woodruff et al., 2001)). A positive control (IndCl), a negative control (Vehicle consisting of the media+EtOH mixture used to dissolve IndCl), and a normal control (differentiating media alone) were used for comparison. At the end of the treatment period, cells were fixed, stained by immunocytochemistry (primary antibody polyclonal chicken myelin basic protein (MBP, Millipore AB9348), shown in green and co-stained with nuclear stain—DAPI shown in blue), and imaged with an Olympus BX61 confocal microscope (Olympus America Inc., Center Valley, Pa.) at 10× magnification (3 images per well). Cells were counted using the ImageJ multipoint tool, and counts were then divided by the image area (mm^2). Average cell density for each condition was then divided by the normal condition cell density. Analysis of OL differentiation consisted of counting the number of MBP+ cells and process extensions that were longer than the respective cell-body diameter and tracking the number of highly branched MBP+ cells (with three or more processes) (Monnerie et al., 2017). Statistics were performed using GraphPad Prism 6 Software (La Jolla, Calif.). One-way ANOVA with Tukey's posthoc test for multiple comparisons was used to generate p-values, and data are presented as mean SEM (with α≤0.05).
Primary OPC cultures were used as a convenient cell-based assay to characterize the proliferation and/or differentiation effects of the new IndCl analogues and to select those most suitable for more extensive studies to be done in comparison with the parental ligand, IndCl. 48 hours after plating OPCs, one of seven IndCl analogues (FIG. 1A) was added to differentiating media at a concentration of 10 nM (De Angelis et al., 2005; Saijo et al., 2011). OPCs were allowed to differentiate for 3 days in the presence of IndCl or analogues, at which point they were fixed, immunostained for OPC/OL markers, and quantified. […] The total number of cells in culture was not altered by any treatment (FIGS. 1B and 1D).

RBA ERα (ERα) [%] | Structure (SMILES) | Myelination: g-ratio (corpus callosum axons) | g-ratio of callosal axons (corpus callosum axons; therapeutic treatment (postEAE)) | number of MBP+ OLs (differentiated OLs) [1] | branched OLs / complex branching cells [1] | MBP+/DAPI ratio (OPC differentiation) ([1]; FIG. 10B)
0.03 | Oc1ccc(-n2nc3ccc(O)cc3c2Cl)cc1 [IndCl, chloroindazole] | − | decreased | significantly increased |  | 
0.40 | Oc1ccc(-n2nc3ccc(O)cc3c2Cl)c(Cl)c1 [IndCl-o-Cl, 3-chloro-2-(2-chloro-4-hydroxyphenyl)-2H-indazol-5-ol] | − |  | significant increase; also recorded: significantly increased | increase in the percentage of branched OLs | 
0.43 | Cc1cc(O)ccc1-n1nc2ccc(O)cc2c1Cl [IndCl-o-Me, 3-chloro-2-(4-hydroxy-2-methylphenyl)-2H-indazol-5-ol] | − |  | significant increase; also recorded: significantly increased | increase in the percentage of branched OLs | greatest increase
